# Measured values published in patent US20070059785A1, “Biomarkers in cancer” (SMITHKLINE BEECHAM CORPORATION, priority 2003, published 2007).
# Entries after “also recorded” stand apart in the source; their conditions may differ.
# Columns and labels:
# AKT [1] = assay: Western blot of p-AKT in BT474 cells; format: cell-based, human; settings: BT474, 1 μM, 24 h serum-free; not reversed by EGF
# Procedure: (§1) The erbB2 overexpressing human breast adenocarcinoma cell line, BT474, was obtained from the American Type Culture Collection (Rockville, M, USA). […] The EGFR overexpressing LICR-LON-HN5 head and neck carcinoma cell line, HN5, was kindly provided by Helmout Modjtahedi at the Institute of Cancer Research, Surrey, U.K.
# (§2) For IP Western blots, equivalent amounts of protein were precleared with Protein G Plus/Protein A agarose overnight at 4° C. Precleared lysates were then incubated overnight at 4° C. with specific antibodies. Immune complexes were precipitated with Protein G Plus/Protein A agarose beads, washed in RIPA buffer and then boiled in sample loading buffer. Steady state levels of total Erk1/2 and activated Erk1/2 (p-Erk) as well as total AKT protein and activated AKT (p-AKT) protein were assessed by Western blot. […] Proteins were transferred to Immobilon-P or nitrocellulose membranes. Efficiency and equal loading of proteins was evaluated by Ponceau S staining. Membranes were blocked for 1 hr in TBS (25 mM Tris-HCl, pH 7.4, 150 mM NaCl, 2.7 mM KCl) containing 4% (w/v) lowfat milk or 3% BSA (w/v). Membranes were then probed with specific antibodies recognizing target proteins. Proteins were visualized with the SUPERSIGNAL® West Femto Maximum sensitivity substrate kit (Pierce).
# BT474 is an erbB2 overexpressing breast carcinoma line that also expresses EGFR, albeit at lower levels. […]
# AKT [2] = assay: Western blot of p-AKT in HN5 cells; format: cell-based, human; settings: HN5, 5 μM, 24 h serum-free
# Procedure: as §1, §2
# HN5 cells = assay: Apoptosis and growth of HN5 cells; format: cell-based, human; settings: data not shown
# Erk1/2 [3] = assay: Western blot of p-Erk1/2 in Hb4a cells; format: cell-based, human; settings: 5 μM, 72 h, not reversed by EGF
# Procedure: (§3) The EGFR overexpressing LICR-LON-HN5 head and neck carcinoma cell line, HN5, was kindly provided by Helmout Modjtahedi at the Institute of Cancer Research, Surrey, U.K.
# as §2
# (§4) Steady state levels of activated erbB2 and EGFR (p-Tyr/ErbB2 and p-Tyr/EGFR); total erbB2 and EGFR; activated Erk1/2 (p-Erk1/2) and total Erk1/2 were assessed by either IP Western or Western blot.
# Erk1/2 [4] = assay: HN5 tumor xenograft, p-Erk1/2 and total Erk1/2 by Western blot; format: in vivo, CD-1 nude mice
# Procedure: (§5) Total Erk1/2, total AKT, activated Erk1/2 (p-Erk1/2), and activated AKT (p-AKT) were assessed by Western blot loading equal amounts of protein from tumor biopsies.
# (§6) HN5 cells were grown in DMEM supplemented with 10% fetal bovine serum, sodium pyruvate and L-glutamine at 37° C. in a 95/5% air/CO2 atmosphere. […] Cells (2×10^6/mouse) in 0.2 ml were injected into the right flank of CD-1 nude mice. Female CD-1 nude mice were acquired from Charles River Laboratories. Mice were maintained in filter-topped cages in an aseptic environment with laminar flow filtered ventilation. […] Tumors were biopsied pre-treatment and 4 hours after the last dose. All animal surgery was conducted under aseptic conditions. For the initial biopsy, mice were anesthetized with isofluorane inhalation. The skin over the tumor was disinfected with iodine. A small hemostat was used to tease away the skin from the tumor, and scissors were used to make a 1 cm incision over the tumor. A scalpel and forceps were used to remove approximately 100 mg of tumor. The tumor was then frozen in liquid nitrogen. Wound clips were used to close the incision. The anesthetized mice were kept warm until they recovered mobility, usually less than 1-2 minutes. For the terminal biopsy, mice were euthanized with CO2 inhalation, and the remainder of the tumor excised. HN5 tumors were placed on dry ice in vials containing cold isopentane, and stored at −80 C prior to study. BT474 tumor samples were fixed for 2-3 hours in phosphatase inhibitor consisting of sodium fluoride and sodium pervanadate in 10% neutral buffered formalin. Following fixative treatment, BT474 samples were washed in water and stored in 70% ethanol prior to study. Cell extracts were prepared by homogenization in RIPA buffer at 4° C.
# as §5
# AKT [5] = assay: HN5 tumor xenograft, p-AKT and total AKT by Western blot; format: in vivo, CD-1 nude mice
# Procedure: as §5, §6, §5
# erbB2 [6] = target: T1, erbB2 (Homo sapiens, UniProt P04626); assay: BT474 tumor xenograft, p-Tyr/ErbB-2 and total ErbB-2 by Western blot; format: in vivo, C.B-17 SCID mice; settings: 100 mg/kg
# T1 sequence (P04626 23-1255): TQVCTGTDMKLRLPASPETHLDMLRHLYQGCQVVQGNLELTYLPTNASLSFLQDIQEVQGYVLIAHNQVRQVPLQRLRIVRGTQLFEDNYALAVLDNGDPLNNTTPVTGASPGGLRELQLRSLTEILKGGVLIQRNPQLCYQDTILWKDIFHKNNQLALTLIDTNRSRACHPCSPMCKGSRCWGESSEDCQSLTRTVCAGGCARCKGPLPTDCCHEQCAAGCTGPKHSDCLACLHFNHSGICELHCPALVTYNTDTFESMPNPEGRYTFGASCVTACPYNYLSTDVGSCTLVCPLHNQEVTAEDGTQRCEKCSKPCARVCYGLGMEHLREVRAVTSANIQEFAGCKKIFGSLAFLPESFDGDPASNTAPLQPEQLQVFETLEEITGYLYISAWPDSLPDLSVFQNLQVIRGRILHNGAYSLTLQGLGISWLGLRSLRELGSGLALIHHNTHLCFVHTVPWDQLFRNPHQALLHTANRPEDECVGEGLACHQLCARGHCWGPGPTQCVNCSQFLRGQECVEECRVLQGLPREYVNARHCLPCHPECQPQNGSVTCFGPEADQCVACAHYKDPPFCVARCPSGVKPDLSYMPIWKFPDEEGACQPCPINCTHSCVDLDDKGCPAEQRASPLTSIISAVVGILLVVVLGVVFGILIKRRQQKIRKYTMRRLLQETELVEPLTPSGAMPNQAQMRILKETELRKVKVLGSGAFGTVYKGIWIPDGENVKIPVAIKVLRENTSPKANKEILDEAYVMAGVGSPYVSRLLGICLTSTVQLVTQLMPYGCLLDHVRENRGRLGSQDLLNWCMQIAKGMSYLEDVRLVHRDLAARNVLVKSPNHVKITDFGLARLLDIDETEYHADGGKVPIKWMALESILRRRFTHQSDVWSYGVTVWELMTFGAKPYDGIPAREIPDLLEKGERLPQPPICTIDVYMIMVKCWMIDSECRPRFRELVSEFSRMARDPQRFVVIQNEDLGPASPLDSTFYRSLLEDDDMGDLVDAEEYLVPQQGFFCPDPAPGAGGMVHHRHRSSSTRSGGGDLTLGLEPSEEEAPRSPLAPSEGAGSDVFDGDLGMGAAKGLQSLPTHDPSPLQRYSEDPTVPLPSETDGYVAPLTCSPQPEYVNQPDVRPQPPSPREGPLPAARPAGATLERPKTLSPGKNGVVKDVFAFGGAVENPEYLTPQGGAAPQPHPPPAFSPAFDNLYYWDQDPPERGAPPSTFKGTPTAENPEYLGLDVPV
# Procedure: (§7) The tumor implant was removed after the final treatment dose. Activated receptor (p-Tyr/ErbB-2) was assessed by IP Western blot and total ErbB-2 steady state protein (ErbB-2), total Erk1/2 and activated Erk1/2 (p-Erk1/2) were assessed by Western blot loading equal amounts of protein from tumor biopsies.
# Cell extracts were prepared by homogenization as described for HN5 xenografts.
# as §7, with “BT474” for “The”, “xenografts (subcutaneous) were established as described in Materials and Methods. […] Controls were treated with vehicle alone. […]” for “implant was removed after the final treatment dose.”
# solid tumors = assay: Open-label clinical study, clinical response (RECIST); format: in vivo, human
# p-ERK = assay: Antibody staining of p-ERK localization in MCF7/erbB2 cells; format: cell-based, human; settings: 10 uM, results not shown
# AKT [7] = settings: S1 cells; not reversed by EGF; data of PCT/US03/12739; cited from earlier work
# erbB2 [8] = target: T1, erbB2; assay: IP Western/Western blot of p-Tyr/erbB2 and total erbB2 in Hb4a cells; format: cell-based; set-up: endogenous in cells; host or cells: Hb4a; settings: 5 μM, 72 h, not reversed by EGF
# Procedure: as §3
# Protein concentrations were determined using a modification of the Bradford method (Bio-Rad Laboratory).
# as §2, with “Proteins were visualized with the SUPERSIGNAL® West Femto Maximum sensitivity substrate kit (Pierce).” left out
# as §4
# erbB2 [9] = target: T1, erbB2; assay: Clinical tumor biopsies, total erbB2 by IHC
# Excerpt: All subjects provided written informed consent.
# “erbB2” refers to total erbB2 as measured by immunohistochemistry and reported in OD;
# S1 cells = assay: Cell cycle analysis (propidium iodide, flow cytometry), apoptosis of S1 cells; settings: 5 μM, 72 h
# Procedure: The percentage of cells in G1, S phase, and G2/M are indicated. The sub-G1 peak represents the apoptotic fraction.
# Cells were harvested and fixed with 70% ethanol in PBS. Cell pellets were then resuspended in 0.5 ml PBS containing propidium iodide (50 μg/ml) and DNase-free RNase (100 μg/ml). Cell cycle analysis was performed using a BD Flow Cytometer (Becton Dickinson, San Jose, Calif., USA).
# After 72 h, cell cycle analysis was performed using propidium iodide staining and flow cytometry as described in Materials and methods.
# [10] = patients with >70% decrease in pERK index
smiles,measurement,setting,value
"CS(=O)(=O)CCNCc1ccc(-c2ccc3ncnc(Nc4ccc(OCc5cccc(F)c5)c(Cl)c4)c3c2)o1 [GW572016, N-{3-Chloro-4-[(3-fluorobenzyl)oxy]phenyl}-6-[5-({[2-(methylsulfonyl)ethyl]amino}methyl)-2-furyl]-4-quinazolinamine]",p-AKT,AKT [1],completely inhibited
same,p-AKT,AKT [2],"inhibited p-AKT in HN5 cells, the effect was smaller than in erbB2-overexpressing tumor cells"
same,apoptosis,HN5 cells,significant apoptosis was not seen
same,cell growth,HN5 cells,growth arrest
same,baseline amount of p-Erk,Erk1/2 [3],reduced; also recorded: decreased
same,effect on p-Erk1/2,"Erk1/2 [4]; 10 mg/kg, data not shown",little effect
same,p-Erk1/2 in tumors,Erk1/2 [4]; 30 mg/kg/dose,inhibited
same,total steady state Erk1/2 protein levels,Erk1/2 [4]; 30 mg/kg/dose,without affecting
same,effect on p-AKT,"AKT [5]; 10 mg/kg, data not shown",little effect
same,p-AKT in tumors,AKT [5]; 30 mg/kg/dose,inhibited
same,total steady state AKT protein levels,AKT [5]; 30 mg/kg/dose,without affecting
same,total erbB2 steady state protein levels,erbB2 [6],without effects
same,metastatic subcutaneous nodules,"solid tumors; patient 361, metastatic breast cancer, 1200 mg/day, Day 21",almost all of their metastatic subcutaneous nodules had completely regressed
same,metastatic lymph node that was sequentially biopsied,"solid tumors; patient 364, 1600 mg/day, Day 21",reduced in size
same,sensitivity of the patient's tumor to treatment,"solid tumors; patient 425, inflammatory breast cancer, 1200 mg once per day",very sensitive
same,Partial Response at eight weeks,solid tumors; [10],Partial Response: 2/5
same,Progression at eight weeks,solid tumors; [10],one and Progression: 1/5
same,Stable Disease at eight weeks,solid tumors; [10],Stable Disease: 2/5
same,Partial Response at eight weeks,solid tumors; patients with no decrease or increase in pERK index,Partial Response: 0/3
same,intensity of staining for p-ERK in the nucleus vs control cells,p-ERK,less
same,baseline phosphorylation of AKT,AKT [7],inhibits
same,baseline amount of p-Tyr/erbB2,erbB2 [8],reduced; also recorded: decreased
same,total erbB2 protein,"erbB2 [9]; patient 361, 1200 mg/day",no effect
same,ErbB2,"erbB2 [9]; patient 425, inflammatory breast cancer, 1200 mg/d ditosylate salt, day 21 (day 0: 62)",68 OD
same,increase in percentage of apoptotic cells vs vehicle,S1 cells,23 fold
same,percentage of cells in S phase and G2/M,S1 cells,concomitant reduction
same,percentage of apoptotic cells (sub-G1 peak),S1 cells; vehicle control 2%,46%
